Our source for the TGI values is PubChem BioAssay (NCI).

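Exposure lasted 48 hours, with cells grown in 96-well plates and compounds tested at five concentrations. Definition used: TGI = concentration required for complete inhibition of growth.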

The first assay deals with SNB-75 CNS. Description: NCI-60 cell line screen, 48 h.
Take `O=C1CS(=O)(=O)C(c2cccc(Oc3ccccc3)c2)N1c1ccc(Cl)cc1` (stereo not given): the TGI is > 100 µM.
Turning to `CC1C2CC(C(S(=O)(=O)O)C2=O)C1(C)C` (stereo not given), the TGI is > 100 µM.
Regarding `Cc1n(CC(C)C)c2c([n+]1C)C(=O)c1ccccc1C2=O`, the TGI was 1.55 µM.
`Cc1c(-c2ccccc2)cc(O)c2nc3ccccc3n12`: the TGI was > 100 µM.
`Cc1ccc(C(=O)O)c(/C=C2\Cc3ccc(C)cc3C2=O)c1`: the TGI is > 100 µM.
On the same count and under the same terms, in the case of `C=C(CCOC)CCC1CCCCC(CN(C)C)C1=O` (stereo not given) it was > 100 µM; in that of `COc1ccc(/C=C2\N=C(N3CCCCC3)NC2=O)cc1`, > 100 µM.
In turn, `NC(N)=NS(=O)(=O)c1ccc(NNc2c3ccccc3nc3ccccc23)cc1` showed a TGI of 50.3 µM.
`COc1cc2c(cc1OCCCCCCCCCCN1C(=O)c3cccc4cccc(c34)C1=O)N=C[C@@H]1CCCN1C2=O` returned a TGI of 21.3 µM.
Take `O=C(NC1=C(Cl)C(=O)c2ccccc2C1=O)c1ccccc1`: the TGI was > 100 µM.
For `COc1ccc(Cn2c(=O)c(OC)c(C)c3cc4ccccc4cc32)cc1`, the TGI is > 100 µM.
Consider `N#Cc1c(-c2ccc(Cl)cc2)c2c(n(C3OC(CO)C(O)C(O)C3O)c1=S)CCCC2` (stereo not given), for which the TGI was > 100 µM.
Turning to `COC(=O)C1Cc2cc3c(cc2C1=O)CCC3` (stereo not given), the TGI is > 100 µM.
With `Cc1ccc2c(ccc(/C=C/c3ccc(O)c4ncccc34)[n+]2C)c1`, the TGI turned out to be 43.7 µM.
Regarding `CCOC(=O)c1ccc(N=C/C=C(\Nc2ccc(C(=O)OCC)cc2)C23CC4CC(CC(C4)C2)C3)cc1`, the TGI is > 100 µM.
For `CC(=O)SCCC(NC(=S)Nc1ccccc1)P(=O)(Oc1ccccc1)Oc1ccccc1` (stereo not given), the TGI was > 100 µM.
On to `NC(=Nc1ccccc1Cl)c1ccccc1N`, for which the TGI is > 100 µM.
Still for that read-out and setting: in the case of `CCCCCCCC(CC(=O)NC(CO)C(=O)NC(CO)CC(C)C)OC(=O)CC(CCCCCCC)OC(=O)CC(CCCCCCC)OC1OC(C)C(O)C(OC2OC(C)C(OC(C)=O)C(O)C2O)C1O` (stereo not given) it was 16.3 µM.

In another assay the test system is SR leukemia. The assay is described as follows: NCI-60 cell line screen, 48 h.
The compound `O=C1CS(=O)(=O)C(c2cccc(Oc3ccccc3)c2)N1c1ccc(Cl)cc1` (stereo not given) had a TGI of 45.4 µM.
For the compound `CC1C2CC(C(S(=O)(=O)O)C2=O)C1(C)C` (stereo not given), the TGI was > 100 µM.
On to `Cc1n(CC(C)C)c2c([n+]1C)C(=O)c1ccccc1C2=O`, for which the TGI came out at 11.5 µM.
Regarding `Cc1c(-c2ccccc2)cc(O)c2nc3ccccc3n12`, the TGI is > 100 µM.
With `Cc1ccc(C(=O)O)c(/C=C2\Cc3ccc(C)cc3C2=O)c1`, the TGI is > 100 µM.
For `C=C(CCOC)CCC1CCCCC(CN(C)C)C1=O` (stereo not given), the TGI is > 100 µM.
As for `COc1ccc(/C=C2\N=C(N3CCCCC3)NC2=O)cc1`, the TGI is > 100 µM.
Compound `NC(N)=NS(=O)(=O)c1ccc(NNc2c3ccccc3nc3ccccc23)cc1` displayed a TGI of 13.7 µM.
As for `COc1cc2c(cc1OCCCCCCCCCCN1C(=O)c3cccc4cccc(c34)C1=O)N=C[C@@H]1CCCN1C2=O`, the TGI amounted to 3.84 µM.
Regarding `O=C(NC1=C(Cl)C(=O)c2ccccc2C1=O)c1ccccc1`, the TGI is > 100 µM.
`COc1ccc(Cn2c(=O)c(OC)c(C)c3cc4ccccc4cc32)cc1`: the TGI was 57.5 µM.
For the compound `N#Cc1c(-c2ccc(Cl)cc2)c2c(n(C3OC(CO)C(O)C(O)C3O)c1=S)CCCC2` (stereo not given), the TGI was > 100 µM.
Consider `COC(=O)C1Cc2cc3c(cc2C1=O)CCC3` (stereo not given), for which the TGI is > 100 µM.
On to `Cc1ccc2c(ccc(/C=C/c3ccc(O)c4ncccc34)[n+]2C)c1`, for which the TGI was > 35.7 µM.
With `CCOC(=O)c1ccc(N=C/C=C(\Nc2ccc(C(=O)OCC)cc2)C23CC4CC(CC(C4)C2)C3)cc1`, the TGI is > 100 µM.
Still for that read-out and setting: in the case of `CC(=O)SCCC(NC(=S)Nc1ccccc1)P(=O)(Oc1ccccc1)Oc1ccccc1` (stereo not given) it was > 100 µM.
Consider `NC(=Nc1ccccc1Cl)c1ccccc1N`, for which the TGI is > 100 µM.
Consider `CCCCCCCC(CC(=O)NC(CO)C(=O)NC(CO)CC(C)C)OC(=O)CC(CCCCCCC)OC(=O)CC(CCCCCCC)OC1OC(C)C(O)C(OC2OC(C)C(OC(C)=O)C(O)C2O)C1O` (stereo not given), for which the TGI came out at 6.22 µM.

The subject of another assay is SW-620 colon. The assay is described as follows: NCI-60 cell line screen, 48 h.
For `O=C1CS(=O)(=O)C(c2cccc(Oc3ccccc3)c2)N1c1ccc(Cl)cc1` (stereo not given), the TGI is > 100 µM.
As for `CC1C2CC(C(S(=O)(=O)O)C2=O)C1(C)C` (stereo not given), the TGI was > 100 µM.
Compound `Cc1n(CC(C)C)c2c([n+]1C)C(=O)c1ccccc1C2=O` had a TGI of 1.4 µM.
As to `Cc1c(-c2ccccc2)cc(O)c2nc3ccccc3n12`, the TGI is > 100 µM.
The same measure, in the same setting: for `Cc1ccc(C(=O)O)c(/C=C2\Cc3ccc(C)cc3C2=O)c1` the value was > 100 µM; for `C=C(CCOC)CCC1CCCCC(CN(C)C)C1=O` (stereo not given), > 100 µM.
On to `COc1ccc(/C=C2\N=C(N3CCCCC3)NC2=O)cc1`, for which the TGI was > 100 µM.
Compound `NC(N)=NS(=O)(=O)c1ccc(NNc2c3ccccc3nc3ccccc23)cc1` registered a TGI of 33.7 µM.
`COc1cc2c(cc1OCCCCCCCCCCN1C(=O)c3cccc4cccc(c34)C1=O)N=C[C@@H]1CCCN1C2=O` returned a TGI of 19 µM.
`O=C(NC1=C(Cl)C(=O)c2ccccc2C1=O)c1ccccc1`: the TGI was 33.4 µM.
On the same count and under the same terms, in the case of `COc1ccc(Cn2c(=O)c(OC)c(C)c3cc4ccccc4cc32)cc1` it was > 100 µM; in that of `N#Cc1c(-c2ccc(Cl)cc2)c2c(n(C3OC(CO)C(O)C(O)C3O)c1=S)CCCC2` (stereo not given), > 100 µM; in that of `COC(=O)C1Cc2cc3c(cc2C1=O)CCC3` (stereo not given), > 100 µM.
Same read-out and setting: in the case of `Cc1ccc2c(ccc(/C=C/c3ccc(O)c4ncccc34)[n+]2C)c1` it was 28.4 µM; in that of `CCOC(=O)c1ccc(N=C/C=C(\Nc2ccc(C(=O)OCC)cc2)C23CC4CC(CC(C4)C2)C3)cc1`, > 100 µM; in that of `CC(=O)SCCC(NC(=S)Nc1ccccc1)P(=O)(Oc1ccccc1)Oc1ccccc1` (stereo not given), > 100 µM.
As for `NC(=Nc1ccccc1Cl)c1ccccc1N`, the TGI is > 100 µM.
`CCCCCCCC(CC(=O)NC(CO)C(=O)NC(CO)CC(C)C)OC(=O)CC(CCCCCCC)OC(=O)CC(CCCCCCC)OC1OC(C)C(O)C(OC2OC(C)C(OC(C)=O)C(O)C2O)C1O` (stereo not given) had a TGI of 23.3 µM.

Another assay relates to UACC-257 melanoma. Description: NCI-60 cell line screen, 48 h.
Compound `O=C1CS(=O)(=O)C(c2cccc(Oc3ccccc3)c2)N1c1ccc(Cl)cc1` (stereo not given) registered a TGI of 44.3 µM.
Regarding `CC1C2CC(C(S(=O)(=O)O)C2=O)C1(C)C` (stereo not given), the TGI was > 100 µM.
Same read-out and setting: in the case of `Cc1n(CC(C)C)c2c([n+]1C)C(=O)c1ccccc1C2=O` it was 0.156 µM.
As for `Cc1c(-c2ccccc2)cc(O)c2nc3ccccc3n12`, the TGI is > 100 µM.
On to `Cc1ccc(C(=O)O)c(/C=C2\Cc3ccc(C)cc3C2=O)c1`, for which the TGI is > 100 µM.
On the same count and under the same terms, in the case of `COc1ccc(/C=C2\N=C(N3CCCCC3)NC2=O)cc1` it was > 100 µM; in that of `NC(N)=NS(=O)(=O)c1ccc(NNc2c3ccccc3nc3ccccc23)cc1`, 46.1 µM; in that of `COc1cc2c(cc1OCCCCCCCCCCN1C(=O)c3cccc4cccc(c34)C1=O)N=C[C@@H]1CCCN1C2=O`, 37.3 µM.
The same measure, in the same setting: in the case of `COc1ccc(Cn2c(=O)c(OC)c(C)c3cc4ccccc4cc32)cc1` it was 9.02 µM.
As for `N#Cc1c(-c2ccc(Cl)cc2)c2c(n(C3OC(CO)C(O)C(O)C3O)c1=S)CCCC2` (stereo not given), the TGI is > 100 µM.
With `COC(=O)C1Cc2cc3c(cc2C1=O)CCC3` (stereo not given), the TGI was > 100 µM.
In the case of `Cc1ccc2c(ccc(/C=C/c3ccc(O)c4ncccc34)[n+]2C)c1`, the TGI came to 24.2 µM.
With `CCOC(=O)c1ccc(N=C/C=C(\Nc2ccc(C(=O)OCC)cc2)C23CC4CC(CC(C4)C2)C3)cc1`, the TGI was > 100 µM.
Regarding `CC(=O)SCCC(NC(=S)Nc1ccccc1)P(=O)(Oc1ccccc1)Oc1ccccc1` (stereo not given), the TGI is > 100 µM.
The same measure, in the same setting: for `NC(=Nc1ccccc1Cl)c1ccccc1N` the value was > 100 µM.
With `CCCCCCCC(CC(=O)NC(CO)C(=O)NC(CO)CC(C)C)OC(=O)CC(CCCCCCC)OC(=O)CC(CCCCCCC)OC1OC(C)C(O)C(OC2OC(C)C(OC(C)=O)C(O)C2O)C1O` (stereo not given), the TGI amounted to 12 µM.
